Experimental data reported in ChEMBL document CHEMBL1146450, “Ponicidin and oridonin are responsible for the antiangiogenic activity of Rabdosia rubescens, a constituent of the herbal supplement PC SPES” (J Nat Prod, 2004).
Calls of active or inactive are those of the source. The rule behind the calls is not given here.

How the values were obtained:
HMEC-1 [1] = assay: Antiangiogenic activity in HMEC1 cells assessed as inhibition of capillary-like network formation at 1.5 ug/ml after 18 hrs; format: functional, cell-based; details: Homo sapiens
HMEC-1 [2] = assay: Antiangiogenic activity in HMEC1 cells assessed as inhibition of capillary-like network formation at 2.5 ug/ml after 18 hrs; format: functional, cell-based; details: Homo sapiens
[3] = Cytotoxicity against HMEC1 cells by resazurin assay; format: cell-based; details: Homo sapiens, HMEC-1

SMILES | Activity (HMEC-1 [1]) | Activity (HMEC-1 [2]) | IC50 [3]
C=C1C(=O)[C@@]23[C@@H]4OC5O[C@@]2(O)[C@@H](O)[C@@H]2C(C)(C)CC[C@@H](O)[C@]52[C@@H]3CC[C@@H]14 | Active | Active | –
C=C1C(=O)[C@]23[C@H](O)[C@H]1CC[C@H]2[C@@]12CO[C@]3(O)[C@@H](O)[C@@H]1C(C)(C)CC[C@@H]2O [ORIDONIN] | Active | Active | > 4 µg/mL
